System: B16 melanoma 4A5 cell
Experiment: Whitening test: theophylline-induced melanine production in B16 melanoma 4A5 cells;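 on Whitening effect (melanine production suppressing rate): grades: ± under 20% + 20-40% ++ 40-70% +++ 70-100% suppression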
Format: cell-based, mouse
Conditions: for Whitening effect (melanine production suppressing rate): sample at a concentration of 100 μM or less, theophylline-induced melanine production, 3 days culture, N=4
Procedure: As a test for a whitening effect, evaluation of the action of B16 melanoma 4A5 cell on theophylline-induced melanine production was carried out on an ascorbic acid derivative of the present invention, according to the following procedure. The same evaluation was carried out also on ascorbic acid, known compounds: ascorbic acid salts, and ascorbic acid derivatives, as comparison. The results are shown in Tables 38 to 40. • (1) B16 mouse melanoma 4A5 strain was sowed onto a 48-well plate at a cell density of 2.0×10^4 cells/well. • (2) Culturing was performed for 24 hours with Dulbecco's Modified Eagle's medium (manufactured by SIGMA. Hereinafter, abbreviated as D-MEM) containing 10% fetal bovine serum (manufactured by Roshe Diagnostics). Then, it was changed to 0.2 mM theophylline and a 10% fetal bovine serum-containing D-MEM which contains a sample of given concentration. • (3) After culturing for 3 days in the co-existence of a sample, the medium was removed using an aspirator. Then, after distilled water was added, cells were broken by an ultrasonic wave. • (4) Thereafter, the amount of protein was determined using BCA protein assay kit (manufactured by PIERCE), and the produced amount of melanine was measured by an alkali solubilizing method. To the cell-destructed solution was added sodium hydroxide so as to give a final concentration of 2N and the mixture was dissolved by heating (60° C., 15 minutes), then, the absorbance at 450 nm was measured using a micro plate reader. The melanine amount was calculated from a calibration curve made using synthetic melanine (SIGMA) as a standard. The melanine amount per unit protein was calculated by dividing the melanine amount by the protein amount. • (5) The melanine production suppressing rate was calculated according to the following formula. Melanine production suppressing rate (%)=[1−(A−B)/(C−B)]×100 [wherein, A represents the melanine amount per unit protein (g/g) in adding a sample, B represents the melanine amount per unit protein (g/g) in the normal group, and C represents the melanine amount per unit protein (g/g) in the control group.]
In the following Tables, the melanine production suppressing rate in measuring a sample at a concentration of 100 μM or less is expressed as described below. The measurement was carried out at N=4.

Compound	Whitening effect (melanine production suppressing rate)	whitening effect (in words) (conclusion from Tables 38-40, compared with known ascorbic acid derivatives)
CCCCCCCCCCCCCCCCOC1=C(OCC(O)COCCCC)[C@@H]([C@@H](O)CO)OC1=O (some centres unmarked) [Example 72]	++ (40 to 70%:++)	–
O=C1OC(C(O)CO)C(OC(CO)c2ccccc2)=C1O (centres unmarked) [compound 12, 3-O-(2-hydroxy-1-phenylethyl)ascorbic acid]	++ (40 to 70%:++)	–
CCOCC(O)COC1=C(O)C(=O)OC1C(O)CO (centres unmarked) [Example 7, 3-O-ethylglyceryl ascorbic acid]	+ (20 to 40%:+)	–
CCCCCCCCCCCCCCCCOCC(O)COC1=C(OCCCCCCCC)C(=O)O[C@@H]1[C@@H](O)CO (some centres unmarked) [Example 77]	+ (20 to 40%:+)	–
CC=CCOC1=C(OCC(O)COCCCC)[C@@H]([C@@H](O)CO)OC1=O (some centres unmarked) [Example 53]	+ (20 to 40%:+)	–
CCCCCCCCOCC(O)COC1=C(OCCCCCCCC)C(=O)O[C@@H]1[C@@H](O)CO (some centres unmarked) [Example 73]	+ (20 to 40%:+)	–
CCCCCCCCCCCCCOC1=C(OCC(O)CO)[C@@H]([C@@H](O)CO)OC1=O (some centres unmarked) [Example 64]	++ (40 to 70%:++)	–
CCCCCCCCCCCCCCOC1=C(OCC(O)CO)[C@@H]([C@@H](O)CO)OC1=O (some centres unmarked) [Example 65, 3-O-glyceryl-2-O-tetradecyl ascorbic acid]	++ (40 to 70%:++)	excellent whitening effect
CCOC1=C(OCC(O)CO)C(=O)OC1C(O)CO (centres unmarked) [Example 96]	+ (20 to 40%:+)	–
C=CCOC1=C(OCC(O)COc2ccccc2)[C@@H]([C@@H](O)CO)OC1=O (some centres unmarked) [Example 55]	+ (20 to 40%:+)	–
CCCCCCCOC1=C(OCC(O)CO)[C@@H]([C@@H](O)CO)OC1=O (some centres unmarked) [Example 59]	++ (40 to 70%:++)	–
CCCCCCCCCOC1=C(OCC(O)CO)[C@@H]([C@@H](O)CO)OC1=O (some centres unmarked) [Example 60]	+++ (70 to 100%:+++)	–
CCOCC(O)COC1=C(O)C(C(O)CO)OC1=O (centres unmarked) [Example 13, 2-O-ethylglyceryl ascorbic acid]	+ (20 to 40%:+)	–
CCCCCCCCOC1=C(OCC(O)COCCCC)[C@@H]([C@@H](O)CO)OC1=O (some centres unmarked) [Example 70]	++ (40 to 70%:++)	–
CCCCCCCCCCCCCCCCOCC(O)COC1=C(OCC(O)CO)C(=O)OC1C(O)CO (centres unmarked) [Example 82]	++ (40 to 70%:++)	–
CCCCCCCCCCCCOCC(O)COC1=C(OCC(O)CO)C(C(O)CO)OC1=O (centres unmarked) [Example 85]	++ (40 to 70%:++)	–
CCCCOCC(O)COC1=C(OCC)C(=O)O[C@@H]1[C@@H](O)CO (some centres unmarked) [Example 68]	+ (20 to 40%:+)	–
CCCCCCCCCCCCOC1=C(OCC(O)CO)[C@@H]([C@@H](O)CO)OC1=O (some centres unmarked) [Example 63]	++ (40 to 70%:++)	–
3-O-dodecylglyceryl-2-O-octylglyceryl ascorbic acid [Example 26]	++ (40 to 70%:++)	–
CCCCCCCCCCCCCCCCOCC(O)COC1=C(OCC(O)CO)C(C(O)CO)OC1=O (centres unmarked) [Example 86]	++ (40 to 70%:++)	–
CCCCCCCCCCCCOC1=C(OCC(O)COCCCC)[C@@H]([C@@H](O)CO)OC1=O (some centres unmarked) [Example 71]	+ (20 to 40%:+)	–
CCCCCCCCOCC(O)COC1=C(OCC(O)COCCCCCCCC)C(C(O)CO)OC1=O (centres unmarked) [Example 91]	+ (20 to 40%:+)	–
O=C1O[C@H]([C@@H](O)CO)C([O-])=C1O.[Na+] [sodium ascorbate, reference compound]	± (<20%:±)	–
CCCCCCCCC(O)COC1=C(OCCCC)C(=O)O[C@@H]1[C@@H](O)CO (some centres unmarked) [Example 79]	+++ (70 to 100%:+++)	–
OC[C@H]1O[C@@H](Oc2ccc(O)cc2)[C@H](O)[C@@H](O)[C@@H]1O [arbutin]	++ (40 to 70%:++)	–

— US8163939B2, “Ascorbic acid derivative or salt thereof, production method thereof, and cosmetic” (Seikwa Kasei Company, Limited, priority 2007, dated 2012)
